Laboratory results as given in article PMC7356998, “Intrinsic Dissolution Rate Profiling of Poorly Water-Soluble Compounds in Biorelevant Dissolution Media” (Pharmaceutics, 2020).
Converted amounts (≈) assume the structure as drawn. Where two headings read alike, the source gives them in different places. Marks after values point to notes of the source that are not given here.

Legend:
[1] = Intrinsic dissolution rate from controlled suspensions (SIDR), μDiss Profiler; assay type: physicochemical; conditions: for IDRFaSSIF-V1 / IDRFaSSIF-V2 / IDRFeSSIF-V2: suspension (S), 100 rpm, mean ± SD; for IDRFaSSIF-V1: FaSSIF-V1 pH 6.5, 37 °C; for IDRFaSSIF-V2: FaSSIF-V2 pH 6.5, 37 °C; for IDRFeSSIF-V2: FeSSIF-V2 pH 5.8, 37 °C; for IDR in fed-state medium (FeSSIF-V1) compared to fasted-state (FaSSIF-V1): suspension assays
Method: Controlled suspensions of the APIs were prepared by tip ultrasonication in suspension media. For compatibility reasons, the suspension medium composition was 2% PVP K30 and 0.2% SDS in MilliQ water for acidic and neutral compounds or 1% HPMC and 0.2% SDS in MilliQ water for basic compounds. Suspension media were stirred for at least an hour until a clear solution was obtained. All suspensions were prepared at a concentration of 4 mg API/mL suspension medium by weighing 16 mg of the compound into a glass vial and adding 4 mL of the corresponding suspension medium. The suspension was then briefly vortexed prior to 5 min of tip ultrasonication using a Vibra-Cell sonicator mounted with a 13 mm (Ø) probe tip (Sonics, Newtown, CT, USA). The following settings were used: 20% amplitude, pulse 10 s on and 5 s off. The vial containing the suspension was placed in a beaker with ice during ultrasonication to avoid heating. Felodipine and griseofulvin were treated slightly differently to avoid forming a large fraction of submicron-sized particles. The felodipine suspension was only ultrasonicated for 1 min, and the griseofulvin suspension was used immediately after vortexing and without ultrasonication. All prepared suspensions were kept in an oven at 37 °C prior to use in the dissolution experiments. Dissolution experiments were performed within three hours of sample preparation.
The freshly prepared suspension was diluted (100 µL in 1 mL MilliQ water) and immediately used for determination of hydrodynamic particle size by dynamic light scattering (DLS; Litesizer 500, Anton Paar GmbH, Graz, Austria) at 25 °C. Peak values from the intensity-based particle size distribution were used for calculating total particle surface area in the suspension following the approach of Andersson et al.. In case of bimodal particle size distributions, an intensity peak weighted average particle size was calculated. The following assumptions were made for the surface area calculations: (i) spherical particles, (ii) constant particle size, and (iii) constant number of particles during the initial phase of the dissolution experiment (i.e., under sink conditions or <0.3 × Sapp). Using these assumptions, the volume of each particle (Vparticle) is:(1) Vparticle=4πr^3/3, where r is the mean radius of the suspended particles. The particle surface area (SAparticle) is:(2) SAparticle=4πr^2, and the volume of compound (Vmaterial) added to the dissolution medium is:(3) Vmaterial=m/ρ, where m is the total mass of compound added and ρ is the density of the compound. The total number of particles (n) in the suspension can thus be calculated from:(4) nparticles=Vmaterial/Vparticle
Finally, the total surface area (A, cm^2) of all particles present in the suspension added to the dissolution medium is calculated through:(5) A=nparticlesSAparticle
Dissolution experiments were carried out in a small-scale dissolution apparatus using in situ fiber optic probes to measure the amount of drug dissolved over time by UV absorbance (μDiss Profiler, Pion Inc., Billerica, MA, USA). Drug dissolution was carried out from suspensions (S) or discs (D) depending on the solubility of the compound in the biorelevant media studied (Table 3). […].
Standard curves were established by adding aliquots of DMSO stock solutions of the compounds to 3 mL of biorelevant medium, respectively. Dissolution media were prepared following the protocol provided by Biorelevant.com Ltd. and used within 48 h after their preparation. The media were incubated at 37 °C for at least one hour prior to use in the dissolution experiments. The hydrodynamic diameter of the micelles/vesicles formed in the biorelevant media were measured by DLS (Table 2). […] The biorelevant dissolution medium was maintained at 37 °C in the μDiss Profiler and stirred at 800 rpm during addition of the DMSO stock aliquots. […]

[2] = apparent solubility, cited from earlier work; for SFaSSIF-V1: FaSSIF-V1 pH 6.5; for SFeSSIF-V1: FeSSIF-V1 pH 5
[3] = Intrinsic dissolution rate from miniaturized discs (DIDR), μDiss Profiler; assay type: physicochemical; conditions: disc (D), 100 rpm, mean ± SD; for IDRFaSSIF-V1: FaSSIF-V1 pH 6.5, 37 °C
Method: Dissolution experiments were carried out in a small-scale dissolution apparatus using in situ fiber optic probes to measure the amount of drug dissolved over time by UV absorbance (μDiss Profiler, Pion Inc., Billerica, MA, USA). Drug dissolution was carried out from suspensions (S) or discs (D) depending on the solubility of the compound in the biorelevant media studied (Table 3). […] Standard curves were established by adding aliquots of DMSO stock solutions of the compounds to 3 mL of biorelevant medium, respectively. Dissolution media were prepared following the protocol provided by Biorelevant.com Ltd. and used within 48 h after their preparation. The media were incubated at 37 °C for at least one hour prior to use in the dissolution experiments. The hydrodynamic diameter of the micelles/vesicles formed in the biorelevant media were measured by DLS (Table 2). […] Stirring was turned off while measuring the UV absorbance for each aliquot and the standard curve was established based on six aliquots. […] Intrinsic dissolution rates will henceforth be denoted 'IDR' for both SIDR and DIDR values determined in this study (see Table 3 for details).

[4] = Apparent solubility estimated from dissolution experiments in the μDiss Profiler; assay type: physicochemical; conditions: for solubility thermodynamic: thermodynamic from solid
Method: If literature values were not available, Sapp values were estimated from the dissolution experiments either from the steady state concentration reached during dissolution making use of an excess amount material, or by nonlinear regression analysis of the dissolution data in GraphPad Prism 7.04 (GraphPad Software Inc., San Diego, CA, USA). […] In these experiments, an excess amount of drug was added to triplicate Eppendorf tubes containing 1 mL of the respective dissolution medium. The tubes were vortexed and placed in a 37 °C incubator. Samples for HPLC analysis were taken 24, 48, and 72 h (triplicates at each time point) after initiation of the experiment to ensure that equilibrium had been reached. The samples were centrifuged at 37 °C, 23,000 g for 10 min (Heraeus Megafuge 8R, Thermo Scientific, Waltham, MA, USA). The supernatant was sampled, diluted 1:1 with acetonitrile, and kept refrigerated until HPLC analysis. The concentrations of the dissolved drugs were determined using a HPLC (Agilent Technologies 1290 Infinity, Santa Clara, CA, USA) with a Zorbax Eclipse XDB-C18 column (4.6 × 100 mm; Agilent Technologies, Santa Clara, CA, USA) kept at 40 °C. The injection volumes were 20 μL. A mobile phase 0.1% formic acid in acetonitrile: 0.1% formic acid in water 60:40 (v/v) and an isocratic flow rate at 1 mL/min were used for both naproxen and ethinylestradiol. UV absorbances were monitored at a wavelength of 232 nm for naproxen and 315 nm for ethinylestradiol. The retention time was 1.76 min for naproxen and 1.85 min for ethinylestradiol. Dissolution experiments were carried out in a small-scale dissolution apparatus using in situ fiber optic probes to measure the amount of drug dissolved over time by UV absorbance (μDiss Profiler, Pion Inc., Billerica, MA, USA). Drug dissolution was carried out from suspensions (S) or discs (D) depending on the solubility of the compound in the biorelevant media studied (Table 3). […] Glass vials (six in parallel), each containing 15 mL of biorelevant dissolution medium and a crossbar stirrer, were used for the dissolution experiments. The stirring rate was set to 100 rpm. Freshly prepared API suspensions were briefly vortexed to re-disperse any sediments and 500 μL of suspension was added to each vial to initiate the experiment. […] Experiments were run for at least 20 min with data collected every 1 s for the first 8 min and then once per minute for the remaining time. All dissolution experiments from suspensions were carried out in triplicate.

[5] = FaSSIF-V1, 37 °C, pH 6.5, fassif, FaSSIF-V1 pH 6.5, determined from dissolution experiments in the μDiss Profiler, read-out: SFaSSIF-V1
[6] = FaSSIF-V1 pH 6.5, determined from dissolution experiments in the μDiss Profiler
[7] = FeSSIF-V1, 37 °C, pH 5, fessif, FeSSIF-V1 pH 5, determined from dissolution experiments in the μDiss Profiler, read-out: SFeSSIF-V1

IDRFaSSIF-V1 [1] [μg/min/cm^2] | IDRFaSSIF-V2 [1] [μg/min/cm^2] | IDRFeSSIF-V2 [1] [μg/min/cm^2] | SMILES | SFaSSIF-V1 [2] | SFeSSIF-V1 [2] | also measured
4.1 ± 0.8 | 12.9 ± 0.9 | 4.8 ± 0.6 | Cc1c(Cl)cccc1Nc1ccccc1C(=O)O [Tolfenamic acid] | 63.0 ± 2.7 [15] μg/mL | 41.0 ± 0.5 [15] μg/mL | –
16.8 ± 0.5 | – | – | CC(=O)[C@H]1CC[C@H]2[C@@H]3CCC4=CC(=O)CC[C@]4(C)[C@H]3CC[C@]12C [Progesterone] | 25.5 ± 1.1 [50] μg/mL | 78.6 ± 16.2 [41] μg/mL | –
3.4 ± 0.7 | 1.3 ± 0.8 | – | CN1CC(=O)N2[C@H](c3ccc4c(c3)OCO4)c3[nH]c4ccccc4c3C[C@@H]2C1=O [Tadalafil] | 5.9 ± 0.7 [7] μg/mL | – | solubility thermodynamic [4, 7]: 21 ± 0.5 µg/mL (≈ 53.9 µM); IDR in fed-state medium (FeSSIF-V1) compared to fasted-state (FaSSIF-V1) [1]: double
13.9 ± 2.0 | 11.9 ± 1.0 | 7.9 ± 2.1 | Cc1cccc(Nc2ccccc2C(=O)O)c1C [Mefenamic acid] | – | – | solubility thermodynamic [4, 5]: 36.6 ± 0.6 µg/mL (≈ 152 µM); solubility thermodynamic [4, 7]: 33.2 ± 0.7 µg/mL (≈ 138 µM)
1.1 ± 0.2 | 1.2 ± 0.1 | 5.2 ± 0.8 | COc1ccc2c(c1OC)C(=O)O[C@@H]2[C@H]1c2c(cc3c(c2OC)OCO3)CCN1C [Noscapine] | – | – | SFaSSIF-V1 ([4]; FaSSIF-V1 pH 6.5, extrapolation of μDiss dissolution data by nonlinear regression (GraphPad Prism)): 13.4 ‡ μg/mL; SFaSSIF-V1 ([4]; FaSSIF-V1 pH 6.5, extrapolation of μDiss dissolution data by nonlinear regression (GraphPad Prism), listed as noscapine): 11 to 13 µg/mL

More lines, now with the values behind:

SMILES | IDRFaSSIF-V1 [1] [μg/min/cm^2] | IDRFaSSIF-V2 [1] [μg/min/cm^2] | IDRFeSSIF-V2 [1] [μg/min/cm^2] | SFaSSIF-V1 [2] | SFeSSIF-V1 [2] | also measured
COc1ccc2c(c1)c(CC(=O)O)c(C)n2C(=O)c1ccc(Cl)cc1 [Indomethacin] | – | – | – | 421.7 ± 17.6 [7] μg/mL | 109.0 ± 7.0 [15] μg/mL | IDRFaSSIF-V1 [3]: 31 ± 1.3 μg/min/cm^2
CC(C)(Oc1ccc(C(=O)c2ccc(Cl)cc2)cc1)C(=O)O [Fenofibric acid] | – | – | – | – | – | solubility thermodynamic [4, 5]: ~100 µg/mL (≈ 314 µM); SFaSSIF-V1 [4, 6]: 104.8 ± 1.0 µg/mL; solubility thermodynamic [4, 7]: 101 ± 3.8 µg/mL (≈ 318 µM); IDRFaSSIF-V1 [3]: 227 ± 33 μg/min/cm^2
COc1ccc2cc([C@H](C)C(=O)O)ccc2c1 [Naproxen] | – | – | – | – | – | IDRFaSSIF-V1 [3]: 144 ± 12 μg/min/cm^2; IDRFaSSIF-V2 ([3]; FaSSIF-V2 pH 6.5, 37 °C): 179 ± 11 μg/min/cm^2
COc1ccc(CCN2CCC(Nc3nc4ccccc4n3Cc3ccc(F)cc3)CC2)cc1 [Astemizole] | 8.6 ± 0.4 | 2.0 ± 0.2 | – | 97.9 ± 2.1 [15] μg/mL | 182 ± 1 [15] μg/mL | SFaSSIF-V1 ([2]; listed as astemizole): ~ 100 μg/mL
COc1ccccc1OCCNCC(O)COc1cccc2[nH]c3ccccc3c12 (stereo not shown) [Carvedilol] | 2.9 ± 0.5 | 1.5 ± 0.2 | 13.6 ± 0.6 | 55.9 ± 1.0 [15] μg/mL | 305 ± 2 [15] μg/mL | –
CC(C)(Oc1ccc(CCNC(=O)c2ccc(Cl)cc2)cc1)C(=O)O [Bezafibrate] | 32.7 ± 3.9 | – | – | – | – | solubility thermodynamic [4, 5]: ~100 µg/mL (≈ 276 µM); SFaSSIF-V1 [4, 6]: 91.0 ± 8.9 µg/mL; SFeSSIF-V1 ([4]; FeSSIF-V1 pH 5, extrapolation of μDiss dissolution data by nonlinear regression (GraphPad Prism)): 105.7 ‡ μg/mL
C(=C\c1ccccc1)/CN1CCN(C(c2ccccc2)c2ccccc2)CC1 [Cinnarizine] | 0.3 ± 0.01 | – | – | – | – | –
CCOC(=O)C1=C(C)NC(C)=C(C(=O)OC)C1c1cccc(Cl)c1Cl (stereo not shown) [Felodipine] | 0.8 ± 0.4 | 0.6 ± 0.2 | 1.5 ± 0.2 | 31.8 ± 1.7 [7] μg/mL | 44.9 ± 9.2 [48] μg/mL | –
C#C[C@]1(O)CC[C@H]2[C@@H]3CCC4=Cc5oncc5C[C@]4(C)[C@H]3CC[C@@]21C [Danazol] | 0.14 ± 0.02 | – | – | – | – | IDR in fed-state medium (FeSSIF-V1) compared to fasted-state (FaSSIF-V1) [1]: 28 fold
COC1=CC(=O)C[C@@H](C)[C@]12Oc1c(Cl)c(OC)cc(OC)c1C2=O [Griseofulvin] | 3.7 ± 0.6 | – | – | 23.4 ± 1.8 [41] μg/mL | 29.2 ± 3.4 [41] μg/mL | IDR in fed-state medium (FeSSIF-V1) compared to fasted-state (FaSSIF-V1) [1]: lower
CC(C)OC(=O)C(C)(C)Oc1ccc(C(=O)c2ccc(Cl)cc2)cc1 [Fenofibrate] | 0.04 ± 0.002 | 0.05 ± 0.001 | 2.7 ± 0.3 | – | – | –
OCCN(CCO)c1nc(N2CCCCC2)c2nc(N(CCO)CCO)nc(N3CCCCC3)c2n1 [Dipyridamole] | 0.5 ± 0.05 | 0.5 ± 0.03 | 1.7 ± 0.3 | 11.1 ± 3.0 [48] μg/mL | 148.9 ± 19.7 [48] μg/mL | SFaSSIF-V1 ([2]; listed as dipyridamole): 11 to 13 µg/mL
